target: T1, CXCR3 (Homo sapiens, UniProt P49682); experiment: CXCR3/IP-10 radioligand binding (125I-IP-10 competition, CXCR3.L1/2 cell membranes); conditions: Table 5; test compound 10 μmol/L; 125I-labeled IP-10 binding to CXCR3.L1/2 transfectant cell membrane
T1 construct: expressed in transfected cells
T1 sequence (P49682 1-368): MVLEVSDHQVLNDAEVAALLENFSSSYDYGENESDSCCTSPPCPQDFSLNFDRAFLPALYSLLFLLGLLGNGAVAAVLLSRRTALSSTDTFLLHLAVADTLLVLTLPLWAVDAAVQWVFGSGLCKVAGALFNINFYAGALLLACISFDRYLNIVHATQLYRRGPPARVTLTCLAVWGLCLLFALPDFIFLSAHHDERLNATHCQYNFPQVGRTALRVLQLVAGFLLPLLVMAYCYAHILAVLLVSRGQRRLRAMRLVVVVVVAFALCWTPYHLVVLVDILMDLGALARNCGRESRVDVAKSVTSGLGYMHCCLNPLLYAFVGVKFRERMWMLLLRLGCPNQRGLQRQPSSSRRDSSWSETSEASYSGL
Excerpt: The activity of the compounds of the present invention can be assessed using a suitable assay, such as a receptor binding assay, a chemotaxis assays, an extracellular acidification assay or a calcium flux assay (see, for example, Hesselgesser et al., J. Biol. Chem. 273(25):15687-15692 (1998) and WO 98/02151). For example, as described herein, small organic molecule antagonists of CXCR3/IP-10 binding have been identified utilizing cells engineered to express recombinant human CXCR3 (CXCR3.L1/2) and which bind ^125I-IP-10 and chemotax in response to IP-10, Mig or I-TAC. Specifically, a high through-put receptor binding assay, which monitors ^125I-IP-10 binding to CXCR3.L1/2 cell membranes, was used to identify small molecule antagonists which block binding of IP-10, Mig or I-TAC to CXCR3.
CXCR3.L1/2 cells were pelleted by centrifugation and stored at −80° C. The cells were lysed by thawing and resuspending at about 1.5×10^7 cells/ml in a hypotonic buffer (5 m mol/L HEPES (pH 7.2), 2 mmol/L EDTA, 10 μg/ml each leupeptin, aprotinin, and chymostatin, and 100 μg/ml PMSF (all from Sigma, St. Louis)). Nuclei and cellular debris was removed by centrifugation ([…], at 4° C.) for 10 min. The supematant was transferred to chilled centrifuge tubes (Nalge, Rochester, N.Y.) and the membrane fraction was recovered by centrifugation (25,000 g at 4° C.) for 45 min. The membrane pellet was resuspended in freezing buffer (10 mM HEPES (pH 7.2), 300 mmol/L Sucrose, 5 μg/ml each of leupeptin, aprotinin, and chymostatin, and 10 μg/ml PMSF). The total protein concentration was determined using a coomassie blue staining protein concentration assay kit (BioRad). The membrane preparation was aliquoted and stored at −80° C. until time of use.
CXCR3/IP-10 binding was performed in 96-well polypropylene plates (Costar) in a final volume of 0.1 ml of HBB buffer (50 mmol/L Hepes pH 7.4, 1 mmol/L CaCl2, 5 mmol/L MgCl2, 0.02% sodium azide, 0.5% BSA (bovine serum albumin)) containing 1 to 5 μg of CXCR3.L1/2 transfectant cell membrane protein and 0.05 to 0.2 nmol/L ^125I-labeled IP-10 (NEN, Boston, Mass.). Competition binding experiments were performed by including variable concentrations of unlabeled IP-10 or test compound. Nonspecific binding was determined following the addition of a 250 nmol/L unlabelled IP-10. Samples were incubated for 60 min at room temperature, and bound and free tracer (^125I-IP10) were separated by filtration through 96-well GF/B filterplates (Packard) presoaked in 0.3% polyethyleneimine. The filters were washed in HBB further supplemented with 0.5 mol/L NaCl, dried, and the amount of bound radioactivity determined by liquid scintillation counting. The competition is presented as the percent specific binding as calculated by 100×[(S-B)/(T-B)], where S is the radioactivity bound for each sample, B is background binding, and T is total bound in the absence of competitors. Duplicates were used throughout the experiments.

Row | Molecule | % inhibition at 10 μmol/L [%] | inhibition at 10 µM [%]
1 | 1-[2-{N-Ethyl-N-(4-N,N-dimethylaminomethylbenzyl)amino}ethyl]-3-(1-naphthylmethyl)-2-imidazolidinylidenepropanedinitrile [Compound 9] | 94 | 
2 | CCN(CCN1CCN(Cc2cccc3ccccc23)C1=C(C#N)C#N)Cc1ccc(CN2CCCCC2)cc1 [Compound 2, 1-[2-{N-Ethyl-N-(4-piperidinomethylbenzyl)amino}ethyl]-3-(1-naphthylmethyl)-2-imidazolidinylidenepropanedinitrile] | 96 | 
3 | CCN(CCN1CCN(Cc2cccc3ccccc23)C1=C(C#N)C#N)Cc1ccc(OCCN2CCCC2)cc1 [Compound 4, 1-[2-{N-Ethyl-N-{4-(2-(1-pyrrolidinyl)ethoxy)benzyl}amino}ethyl]-3-(1-naphthylmethyl)-2-imidazolidinylidenepropanedinitrile] | 76 | 
4 | CN(CCN1CCN(Cc2cccc3ccccc23)C1=C(C#N)C#N)Cc1ccc(CN2CCCCC2)cc1 [Compound 5, 1-[2-{N-Methyl-N-(4-piperidinomethylbenzyl)amino}ethyl]-3-(1-naphthylmethyl)-2-imidazolidinylidenepropanedinitrile] | 99 | 
5 | CN(CCN1CCN(Cc2cccc3ccccc23)C1=C(C#N)C#N)Cc1cccc(CN2CCCCC2)c1 [Compound 6, 1-[2-{N-Methyl-N-(3-piperidinomethylbenzyl)amino}ethyl]-3-(1-naphthylmethyl)-2-imidazolidinylidenepropanedinitrile] | 99 | 
6 | CCN(CCN1CCN(Cc2cccc3ccccc23)C1=C(C#N)C#N)Cc1ccc(CN2CCOCC2)cc1 [Compound 7, 1-[2-{N-Ethyl-N-(4-morpholinomethylbenzyl)amino}ethyl]-3-(1-naphthylmethyl)-2-imidazolidinylidenepropanedinitrile] | 92 | 
7 | CCN(CCN1CCN(Cc2cccc3ccccc23)C1=C(C#N)C#N)Cc1ccc(CN2CCN(C)CC2)cc1 [Compound 8, 1-[2-{N-Ethyl-N-(4-(4-methylpiperazinyl)methylbenzyl)amino}ethyl]-3-(1-naphthylmethyl)-2-imidazolidinylidenepropanedinitrile] | 86 | 
8 | CCCNCc1ccc(CN(CC)CCN2CCN(Cc3cccc4ccccc34)C2=C(C#N)C#N)cc1 [Compound 10, 1-[2-{N-Ethyl-N-(4-(N-propylamino)methylbenzyl)amino}ethyl]-3-(1-naphthylmethyl)-2-imidazolidinylidenepropanedinitrile] | 100 | 
9 | CCN(CCN1CCN(Cc2cccc3ccccc23)C1=C(C#N)C#N)Cc1ccc(CN2CCN(CCO)CC2)cc1 [Compound 11, 1-[2-{N-Ethyl-(4-(4-(2-hydroxyethyl)piperazinyl)methylbenzyl)amino}ethyl]-3-(1-naphthylmethyl)-2-imidazolidinylidenepropanedinitrile] | 91 | 
10 | CC(=O)N(CCN1CCN(Cc2cccc3ccccc23)C1=C(C#N)C#N)Cc1cccc(CN2CCCCC2)c1 [Compound 12, 1-[2-{N-Acetyl-N-(3-piperidinomethylbenzyl)amino}ethyl]-3-(1-naphthylmethyl)-2-imidazolidinylidenepropanedinitrile] | 76 | 
11 | N#CC(C#N)=C1N(CCN(Cc2cccc(CN3CCCCC3)c2)C(=O)c2ccccc2)CCN1Cc1cccc2ccccc12 [Compound 13, 1-[2-{N-Benzoyl-N-(3-piperidinomethylbenzyl)amino}ethyl]-3-(1-naphthylmethyl)-2-imidazolidinylidenepropanedinitrile] | 61 | 
12 | N#CC(C#N)=C1N(CCN(Cc2cccc(CN3CCCCC3)c2)C(=O)c2ccco2)CCN1Cc1cccc2ccccc12 [Compound 14, 1-[2-{N-Furoyl-N-(3-piperidinomethylbenzyl)amino}ethyl]-3-(1-naphthylmethyl)-2-imidazolidinylidenepropanedinitrile] | 85 | 
13 | N#CC(C#N)=C1N(CCN(Cc2cccc(CN3CCCCC3)c2)C(=O)c2cccs2)CCN1Cc1cccc2ccccc12 [Compound 15, 1-[2-{N-(2-Thiophenecarbonyl)-N-(3-piperidinomethylbenzyl)amino}ethyl]-3-(1-naphthylmethyl)-2-imidazolidinylidenepropanedinitrile] | 71 | 
14 | CS(=O)(=O)N(CCN1CCN(Cc2cccc3ccccc23)C1=C(C#N)C#N)Cc1cccc(CN2CCCCC2)c1 [Compound 16, 1-[2-{N-Methanesulfonyl-N-(3-piperidinomethylbenzyl)amino}ethyl]-3-(1-naphthylmethyl)-2-imidazolidinylidenepropanedinitrile] | 89 | 
15 | CCN(CCN1CCN(Cc2cccc3ccccc23)C1=C(C#N)C#N)Cc1cccc(CN2CCCCC2)c1 [Compound 17, 1-[2-{N-Ethyl-N-(3-piperidinomethylbenzyl)amino}ethyl]-3-(1-naphthylmethyl)-2-imidazolidinylidenepropanedinitrile] |  | 96
16 | N#CC(C#N)=C1N(CCN(Cc2ccccc2)Cc2cccc(CN3CCCCC3)c2)CCN1Cc1cccc2ccccc12 [Compound 18, 1-[2-{N-Benzyl-N-(3-piperidinomethylbenzyl)amino}ethyl]-3-(1-naphthylmethyl)-2-imidazolidinylidenepropanedinitrile] | 67 | 
17 | N#CC(C#N)=C1N(CCN(Cc2cccc(CN3CCCCC3)c2)Cc2cccc(CN3CCCCC3)c2)CCN1Cc1cccc2ccccc12 [Compound 19, 1-[2-{N,N-Bis(3-piperidinomethylbenzyl)amino}ethyl]-3-(1-naphthylmethyl)-2-imidazolidinylidenepropanedinitrile] | 68 | 
18 | N#CC(C#N)=C1N(CCCNCc2ccc(CN3CCCCC3)cc2)CCN1Cc1cccc2ccccc12 [Compound 20, 1-[2-{N-(4-(1-Piperidinomethyl)benzyl)amino}propyl]-3-(1-naphthylmethyl)-2-imidazolidinylidenepropanedinitrile] |  | 74
19 | CCCNCc1ccc(CN(CC)CCN2CCN(Cc3cc(C)cc(C)c3)C2=C(C#N)C#N)cc1 [Compound 21, 1-[2-{N-Ethyl-N-(4-(1-propylaminomethyl)benzyl)amino}ethyl]-3-(3,5-dimethylbenzyl)-2-imidazolidinylidenepropanedinitrile] |  | 99

same assay, conditions: Table 6; test compound 10 μmol/L; 125I-labeled IP-10 binding to CXCR3.L1/2 transfectant cell membrane

Row | Molecule | inhibition at 10 µM [%]
20 | CCCNCc1ccc(CNCCN2CCN(Cc3cc(C)cc(C)c3)C2=C(C#N)C#N)cc1 [Compound 22, 1-[2-{N-(4-(1-Propylaminomethyl)benzyl)amino}ethyl]-3-(3,5-dimethylbenzyl)-2-imidazolidinylidenepropanedinitrile] | 92
21 | CCN(CCN1CCN(Cc2cc(C)cc(C)c2)C1=C(C#N)C#N)Cc1ccc(CN2CCCCC2)cc1 [Compound 23, 1-[2-{N-Ethyl-N-(4-(1-piperidinomethyl)benzyl)amino}ethyl]-3-(3,5-dimethylbenzyl)-2-imidazolidinylidenepropanedinitrile] | 97
22 | CCN(CCN1CCN(Cc2cc(Cl)cc(Cl)c2)C1=C(C#N)C#N)Cc1ccc(CN2CCCCC2)cc1 [Compound 24, 1-[2-{N-Ethyl-N-(4-(1-piperidinomethyl)benzyl)amino}ethyl]-3-(3,5-dichlorobenzyl)-2-imidazolidinylidenepropanedinitrile] | 91
